Results as given in patent publication US8372799B2, “Reverse protein” (Apeptico Forschung und Entwicklung GmbH, priority 2007, dated 2013).
Where a SMILES comes first, the peptide text is derived from it. Bridges are numbered along the chain shown (N, C = ends).

How the values were obtained:
Interleukin-6 (IL-6) = assay: Determination of inflammatory parameters: Interleukin-6 release in human fresh blood (ELISA); assay type: cell-based; conditions: for inflammatory proteins such as the inflammation marker Interleukin-6 (IL-6): human immune cells from the blood, protein at a small concentration; for Concentration of Interleukin-6 (average of three measurements): human fresh blood, 24 hours at 37° C.
Experimental: For the examination, human immune cells from the blood are mixed with protein according to the present invention at a small concentration and are incubated in a manner common in laboratories. Subsequently, marker proteins for inflammations are determined by conventional methods.
Fresh human blood has a very sensitive reaction to pro-inflammatory molecules, among other things, with a release of the inflammation marker Interleukin-6 (IL-6). For determining the pro-inflammatory reaction, samples of human fresh blood with different concentrations of the protein comprising amino acid sequence SEQ ID NO:3 were incubated at the following concentrations: 10 μg/ml, 3 μg/ml, 1 μg/ml. After an incubation of 24 hours at 37° C., the inflammation marker Interleukin-6 was quantitatively determined in the solution via ELISA. LPS served as a positive control.

[1] = system: pulmonary oedema in Wistar rats; assay: Experimental animal study pulmonary oedema: oxygen content of arterial blood after acid lung rinsing; assay type: in vivo, rat; conditions: 125 μg protein intratracheal, 180 minutes after lung rinsing, before rinsing = 100%, without protein 20%
Source text: For the simulation of an acute lung injury and for the formation of a pulmonary oedema, the lungs of laboratory animals, e.g., mice or rats, can be rinsed several times with an acidified saline solution in a manner common in laboratories (for example, according to Isik F. et al., Eur J Cardiothorac Surg (2005); 28: 301-305). The result is a decrease in lung function. If a protein according to the present invention, e.g., a protein of amino acid sequence SEQ ID NO:1, SEQ ID NO:2 or SEQ ID NO:3, is injected as a fog or in an aqueous solution into the lungs of the laboratory animals, a distinct improvement in the lung function will occur within 3 to 5 hours, as indicated by the increased oxygen content in the arterial blood. Thus, a protein according to the present invention can be used for the treatment of oedemas such as pulmonary oedemas.
Male Wistar rats (weighing from 250 g to 350 g) are anesthetized with Rompun® (0.02 ml/100 g) and Ketavet® (0.1 ml/100 g). The respiration is done with a cycle of […], with an inhalation time of 0.2 seconds and an exhalation time of 0.5 seconds. The body temperature ranges, on average, from 37° C. to 39° C. […]
At intervals of 60 minutes each, arterial blood (0.1 ml) is withdrawn from the animals, and the oxygen content is determined in % relative to the normal value.
The verification of the stimulating effect of a protein according to the present invention, e.g., of a protein comprising amino acid sequence SEQ ID NO:1, SEQ ID NO:2 or SEQ ID NO:3, on the lung function is made via experimental animal studies in which a pulmonary oedema is induced. […] In each case, 5 animals are used for objectifying the measured values.
For the intratracheal inhalation, 125 μg protein are, in each case, dissolved in 150 mM saline solution pH 7.3. The oxygen content of the arterial blood is measured immediately before rinsing the lungs, 60 minutes after rinsing the lungs and 180 minutes after rinsing the lungs.
The oxygen content immediately before rinsing the lungs is determined to be 100%. […]

SMILES	inflammatory proteins such as the inflammation marker Interleukin-6 (IL-6) (Interleukin-6 (IL-6))	oxygen content in the arterial blood [1] [%]	Concentration of Interleukin-6 (average of three measurements) (Interleukin-6 (IL-6); 1 μg/ml)	Concentration of Interleukin-6 (average of three measurements) (Interleukin-6 (IL-6); 10 μg/ml)	Concentration of Interleukin-6 (average of three measurements) (Interleukin-6 (IL-6); 1 nμg/ml)	Concentration of Interleukin-6 (average of three measurements) (Interleukin-6 (IL-6); 3 nμg/ml)
CC[C@H](C)[C@H](NC(=O)[C@H](C)N)C(=O)N[C@@H](CCCCN)C(=O)N[C@@H](CO)C(=O)N1CCC[C@H]1C(=O)N[C@H]1CSSC[C@@H](C(=O)N2CCC[C@H]2C(=O)N[C@@H](CO)C(=O)N[C@H](C(=O)N[C@@H](Cc2c[nH]cn2)C(=O)N[C@H](C(=O)O)C(C)C)[C@@H](C)O)NC(=O)CNC(=O)CNC(=O)[C@H](CCCCN)NC(=O)[C@H](C)NC(=O)[C@H](CCC(=O)O)NC(=O)[C@H](C)NC(=O)CNC(=O)[C@H](CCC(=O)O)NC(=O)[C@@H]2CCCN2C(=O)[C@H]([C@@H](C)O)NC(=O)[C@H](CCC(=O)O)NC(=O)[C@H](CCCNC(=N)N)NC(=O)[C@H](CCC(N)=O)NC1=O [SEQ ID NO:1] (H-AIKSPCQRETPEGAEAKGGCPSTHV-OH; disulfide 6-20)	cannot be detected	60				
C[C@@H]1NC(=O)CNC(=O)[C@H](CCC(=O)O)NC(=O)[C@@H]2CCCN2C(=O)[C@H]([C@@H](C)O)NC(=O)[C@H](CCC(=O)O)NC(=O)[C@H](CCCNC(=N)N)NC(=O)[C@H](CCC(N)=O)NC(=O)[C@@H](NC(=O)[C@@H]2CCCN2C(=O)[C@H](CO)NC(=O)[C@@H](N)CCCCN)CSSC[C@@H](C(=O)N2CCC[C@H]2C(=O)N[C@@H](CO)C(=O)O)NC(=O)CNC(=O)CNC(=O)[C@H](CCCCN)NC(=O)[C@H](C)NC(=O)[C@H](CCC(=O)O)NC1=O [SEQ ID NO:2] (H-KSPCQRETPEGAEAKGGCPS-OH; disulfide 4-18)	cannot be detected	63				
C[C@@H]1NC(=O)CNC(=O)[C@H](CCC(=O)O)NC(=O)[C@@H]2CCCN2C(=O)[C@H]([C@@H](C)O)NC(=O)[C@H](CCC(=O)O)NC(=O)[C@H](CCCNC(=N)N)NC(=O)[C@H](CCC(N)=O)NC(=O)[C@@H](N)CSSC[C@@H](C(=O)O)NC(=O)CNC(=O)CNC(=O)[C@H](CCCCN)NC(=O)[C@H](C)NC(=O)[C@H](CCC(=O)O)NC1=O [SEQ ID NO:3, (NH2)Cys-Gln-Arg-Glu-Thr-Pro-Glu-Gly-Ala-Glu-Ala-Lys-Gly-Gly-Cys(COOH)] (H-CQRETPEGAEAKGGC-OH; disulfide 1-15)	cannot be detected	70	less than 0.5 pg/ml	less than 0.5 pg/ml	less than 0.5 pg/ml	less than 0.5 pg/ml
